Data as given in patent US12673038B2, “Antimycotic methoxyflavone and fluconazole combination for inhibiting cryptococcus” (Karl-Franzens-Universität Graz, priority 2019, dated 2026).

Tested on: S. cerevisiae BY4741
Assay: AnnexinV/PI co-staining for cell death markers (flow cytometry)
Type: cell-based, Saccharomyces cerevisiae
Details: day 3 after treatment, indicated concentrations
Experimental: S. cerevisiae BY4741 cells were grown in SMD minimal media to mid-log phase and then treated with the indicated concentrations of 5-MF; control cells were treated with the same amount of solvent (DMSO). (A) Clonogenicity was assayed by plating 500 cells on YPD agar plates and colony forming units (CFUs) were counted to calculate survival rates. (B) Yeast cells were analyzed for cell death markers via AnnV/PI co-staining using flow cytometry. (C) The accumulation of reactive oxygen species was monitored by dihydrotethidium (DHE) to ethidium (Eth) conversion using flow cytometry. Assays in (A-C) were performed on day 3 after treatment. […] Data was analyzed by one-way ANOVA and corrected for multiple comparison using a Bonferroni post-hoc test. ns: not significant, * p<0.05, *** p<0.001, **** p<0.0001. […] Cell death markers were assessed by AnnexinV/PI co-staining. Therefore, 1-2×10^7 cells were harvested and treated with 3 μL […]; Sigma, Germany) and 15 μL glucuronidase/arylsulfatase (4.5 U/mL; Roche, Austria) for sphaeroblastation (60 min at 28° C. and 145 rpm). Resulting sphaeroblasts were co-stained with AnnexinV (Roche, Austria) and PI (Sigma, Germany) and analyzed via flow cytometry, using an LSRII Fortessa (BD, Ex: 488 nm; Em: 695 nm for PI and 530 nm for FITC). At least 30,000 cells were analyzed for each sample.

In the case of `COc1cccc2oc(-c3ccccc3)cc(=O)c12` [5-MF, 5-methoxyflavone], the “cell death markers, PI-positive fraction (AnnV/PI co-staining)” value is reported as “mainly increased the PI-positive fraction in a concentration-dependent manner”.
